Data published in patent US9593148B2, “DPP8 and DPP9 peptide inhibitors” (GEORG-AUGUST-UNIVERSITAT GOTTINGEN STIFTUNG OFFENTLICHEN …, priority 2012, dated 2017).
No end group written: not given here.

Columns and labels:
HeLa cells [1] = assay: MTT proliferation assay of HeLa cells expressing the peptide; format: cell-based, human; conditions: Ubiquitin-SLRFLYEG-YFP construct, 32 hours after transfection, vs control plasmid or mock
Experimental: To test whether DPP8/9 inhibition effects cell viability, the inventors performed MTT (3-4,5-dimethylthiazol-2-yl)-2,5-diphenyltetrazolium bromide) based assays, which are widely used to measure cell proliferation and growth (e.g. in clinical settings for testing tumor sensitivity to chemotherapeutic agents). This assay involves the conversion of the water soluble MTT to an insoluble formazan. The formazan is then solubilized in 0.1N HCl. Absorbance is then determined at 570 nm. For a prolonged exposure of cells to the allosteric DPP8/9 inhibitor […] (SEQ ID NO: 38), the inventors cloned the peptide into a mammalian expression vector pEYFP-N1 from Clontech. The peptide inhibitor contains a serine at its amino-termini. Thus, to avoid expression of the peptide with a methionine residue at its amino terminus, it was cloned in frame with ubiquitin. Once expressed in cells, the ubiquitin moiety is cleaved by ubiquitin isopeptidases to release the […]-YFP (SEQ ID NO: 38) construct. A control construct was included that lacked the […] (SEQ ID NO: 38) peptide (Ubiquitin-YFP). […] 32 hours after transfection, cells were analyzed via a standard MTT assay.
Briefly, cell media was removed and replaced by 0.5 mg/ml of MTT reagent. […] Absorbance was measured with a microplate fluorimeter. […]

DPPIV = DPPIV (Homo sapiens, UniProt P27487); assay: GP-AMC hydrolysis by DPPIV in the presence of peptide; format: biochemical; conditions: concentrations measured up to 50 μM
Sequence of DPPIV (P27487 whole entry): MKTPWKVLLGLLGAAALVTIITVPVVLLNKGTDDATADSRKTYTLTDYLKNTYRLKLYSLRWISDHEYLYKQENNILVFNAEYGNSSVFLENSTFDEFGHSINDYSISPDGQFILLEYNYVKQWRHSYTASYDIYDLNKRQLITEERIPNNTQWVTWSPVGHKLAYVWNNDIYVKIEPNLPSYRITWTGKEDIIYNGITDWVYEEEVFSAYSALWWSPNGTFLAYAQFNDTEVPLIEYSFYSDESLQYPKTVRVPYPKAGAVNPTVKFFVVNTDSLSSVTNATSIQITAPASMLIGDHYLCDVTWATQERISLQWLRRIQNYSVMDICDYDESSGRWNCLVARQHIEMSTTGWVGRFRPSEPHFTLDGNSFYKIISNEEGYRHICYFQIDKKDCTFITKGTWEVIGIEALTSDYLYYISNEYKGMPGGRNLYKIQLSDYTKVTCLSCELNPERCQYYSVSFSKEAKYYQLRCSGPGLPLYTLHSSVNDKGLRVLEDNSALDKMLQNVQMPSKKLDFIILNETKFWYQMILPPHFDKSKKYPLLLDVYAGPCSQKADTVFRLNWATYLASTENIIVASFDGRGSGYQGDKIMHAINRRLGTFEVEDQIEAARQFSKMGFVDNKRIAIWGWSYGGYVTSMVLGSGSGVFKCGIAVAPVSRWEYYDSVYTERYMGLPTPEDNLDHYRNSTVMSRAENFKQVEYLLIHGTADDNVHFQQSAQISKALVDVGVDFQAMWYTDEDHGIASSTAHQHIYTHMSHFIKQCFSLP
Experimental: Preferably, the peptide is capable of inhibiting the activity by wild-type DPP9 (SEQ ID NO: 6) to a level of 30 to 5%, 29 to 5%, 28 to 5%, 27 to 5%, 26 to 5%, 25 to 5%, 24 to 5%, 23 to 5%, 22 to 5%, 21 to 5%, 20 to 5%, 19 to 5%, 18 to 5%, 17 to 5%, 16 to 5%, 15 to 5%, 14 to 5%, 13 to 5%, 12 to 5%, 11 to 5%, 10 to 5%, 9 to 5%, 8 to 5%, such as 7.5 to 5% of the activity of wild-type DPP9 (SEQ ID NO: 6) if not inhibited. […] Release of AMC from GP-AMC is measured using the Appliskan microplate fluorimeter (Thermo Scientific) with 380 nm (excitation) and 480 nm (emission) filters and the Skanit software, and analysed using the Prism software.
(§1) A&B 25 nM purified recombinant (A) DPP9 or (B) DPP8 were incubated with varying concentrations of the EIL peptide (0, 3.3 μM and 6.6 μM) and tested for hydrolysis of GP-AMC (1000, 500, 250, 125, 0 μM). C. 25 nM DPPIV was tested for the hydrolysis of GP-AMC (500, 250, 125, 0 μM) in the presence of 0 or 13 μM EIL peptide. Fluorescence was measured using the Appliskan microplate fluorimeter (Thermo Scientific) with 380 nm (excitation) and 480 nm (emission) filters and the Skanit software, and analysed using the Prism software. Each experiment was performed at least three times, in replicates of four.

DPP9 [2] = target: T1, DPP9 (Homo sapiens, UniProt Q86TI2); assay: Inhibition of GP-AMC hydrolysis by purified recombinant DPP9 at a single peptide concentration; format: biochemical; conditions: 25 nM DPP9, 0.2 mM GP-AMC, 10 μM peptide; DPP9 alone = 100.3
T1 construct: made in house; host or cells: Sf9 insect cells (baculovirus)
T1 sequence (Q86TI2 1-892 isoform Q86TI2-2): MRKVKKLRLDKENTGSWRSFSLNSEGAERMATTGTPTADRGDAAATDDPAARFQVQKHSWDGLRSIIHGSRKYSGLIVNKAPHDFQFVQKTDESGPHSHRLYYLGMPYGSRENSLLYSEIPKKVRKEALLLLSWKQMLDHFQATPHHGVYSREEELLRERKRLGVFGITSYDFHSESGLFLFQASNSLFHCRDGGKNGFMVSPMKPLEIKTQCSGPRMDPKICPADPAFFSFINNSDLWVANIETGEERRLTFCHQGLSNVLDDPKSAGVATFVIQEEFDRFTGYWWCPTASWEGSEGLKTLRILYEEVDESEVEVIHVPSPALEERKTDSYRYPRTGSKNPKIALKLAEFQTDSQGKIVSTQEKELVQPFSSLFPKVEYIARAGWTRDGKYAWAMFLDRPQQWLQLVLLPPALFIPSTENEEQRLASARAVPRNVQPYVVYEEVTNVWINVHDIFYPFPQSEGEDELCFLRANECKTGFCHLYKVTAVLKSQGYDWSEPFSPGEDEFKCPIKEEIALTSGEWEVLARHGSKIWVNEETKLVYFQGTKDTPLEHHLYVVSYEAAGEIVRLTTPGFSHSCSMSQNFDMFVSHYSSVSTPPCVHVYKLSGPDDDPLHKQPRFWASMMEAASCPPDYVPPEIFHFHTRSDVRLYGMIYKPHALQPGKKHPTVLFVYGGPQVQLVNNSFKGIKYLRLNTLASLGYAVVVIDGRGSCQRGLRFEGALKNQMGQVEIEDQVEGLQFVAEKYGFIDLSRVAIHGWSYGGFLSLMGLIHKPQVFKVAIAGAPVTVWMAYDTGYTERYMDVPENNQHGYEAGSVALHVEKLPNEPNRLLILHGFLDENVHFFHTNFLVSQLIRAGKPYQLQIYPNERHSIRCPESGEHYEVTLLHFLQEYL
Experimental: Accordingly, the peptide is capable of inhibiting the activity of wild-type DPP9 (SEQ ID NO: 6) to a level of 35 to 5% of the activity of wild-type DPP9 (SEQ ID NO: 6) if not inhibited, as determined in an assay using 25 nM purified DPP9, 0.2 mM GP-AMC, and 14 μM of the peptide to be tested, in TB buffer (20 mM Hepes/KOH pH 7.3, 110 mM potassium acetate, 2 mM Mg acetate, 0.5 mM EGTA), supplemented with 0.2% Tween-20, 1 mM dithiothreitol. Release of AMC from GP-AMC is measured using the Appliskan microplate fluorimeter (Thermo Scientific) with 380 nm (excitation) and 480 nm (emission) filters and the Skanit software, and analysed using the Prism software.
(§2) Kinetics assays: Purified recombinant DPP9 (25 nM) was incubated with varying concentrations of GP-AMC, in TB supplemented with 0.2% Tween-20, 1 mM ditiothreitol. For inhibition assays, inhibitory peptides were added directly to the reaction mixture. For activation by SUMO 0.2 mg/ml BSA, was added to the buffer to prevent non specific binding. DPP9 were incubated with 2.5 μM of either SUMO1, SUMO1 E67A, SUMO2 for 2 hour on ice prior to the assay. Alternatively DPP9 was incubated with 1 μM of RanGAP or RanGAP modified with either SUMO1 or SUMO2 for 2 hours prior to the assay. Fluorescence was measured using the Appliskan microplate fluorimeter (Thermo Scientific) with 380 nm (excitation) and 480 nm (emission) filters and the Skanit software, and analysed using the Prism software. Each experiment was performed at least three times, in replicates of four.
To improve the inhibition of DPP9, the inventors tested several peptide libraries composed of truncated variants of the EIL peptide (>80% pure, ordered from Genescript). These peptides were incubated with recombinant DPP9 and analysed GP-AMC hydrolysis. AMC release was then compared to samples containing either DPP9 alone, or the EIL peptide.

DPP8 = target: T2, DPP8 (Homo sapiens, UniProt Q6V1X1); assay: Kinetics assay, Ki for inhibition of DPP8 (GP-AMC hydrolysis); format: biochemical
T2 construct: made in house; host or cells: Sf9 insect cells (baculovirus)
T2 sequence (Q6V1X1 whole entry): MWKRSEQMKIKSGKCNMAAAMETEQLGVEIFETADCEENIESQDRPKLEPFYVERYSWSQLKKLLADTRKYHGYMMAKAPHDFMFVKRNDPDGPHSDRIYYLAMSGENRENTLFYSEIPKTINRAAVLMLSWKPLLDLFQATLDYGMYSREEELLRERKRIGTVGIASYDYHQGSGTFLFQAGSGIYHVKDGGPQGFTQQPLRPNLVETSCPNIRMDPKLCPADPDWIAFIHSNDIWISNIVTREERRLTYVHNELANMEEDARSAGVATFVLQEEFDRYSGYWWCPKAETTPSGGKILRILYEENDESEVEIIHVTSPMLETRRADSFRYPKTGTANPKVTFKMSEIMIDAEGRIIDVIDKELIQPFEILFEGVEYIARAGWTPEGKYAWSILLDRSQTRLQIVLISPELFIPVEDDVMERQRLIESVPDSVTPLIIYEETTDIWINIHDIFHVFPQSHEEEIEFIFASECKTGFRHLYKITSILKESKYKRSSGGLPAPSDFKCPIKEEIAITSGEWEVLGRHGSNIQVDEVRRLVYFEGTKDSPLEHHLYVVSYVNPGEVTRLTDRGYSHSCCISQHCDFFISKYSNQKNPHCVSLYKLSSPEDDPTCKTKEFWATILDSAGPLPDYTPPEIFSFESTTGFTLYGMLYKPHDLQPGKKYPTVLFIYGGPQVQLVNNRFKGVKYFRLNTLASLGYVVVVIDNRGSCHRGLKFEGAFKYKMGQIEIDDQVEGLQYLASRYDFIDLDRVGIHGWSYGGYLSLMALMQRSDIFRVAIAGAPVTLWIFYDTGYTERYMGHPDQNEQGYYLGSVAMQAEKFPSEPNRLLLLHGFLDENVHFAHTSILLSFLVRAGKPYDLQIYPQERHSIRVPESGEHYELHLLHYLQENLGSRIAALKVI
Experimental: (§3) Enzyme kinetics and the Ki of DPP8 or DPP9 may be determined as follows: 25 nM purified recombinant enzyme (DPP9 or DPP8) are incubated with varying concentrations of GP-AMC ([…] GP-AMC), in TB buffer (20 mM Hepes/KOH pH 7.3, 110 mM potassium acetate, 2 mM Mg acetate, 0.5 mM EGTA), supplemented with 0.2% Tween-20, 1 mM dithiothreitol. Experiments are performed in triplicates. To measure Ki values, for each set of experiments, inhibitory peptides are added to DPP9 or DPP8. Peptide concentrations tested are in the range between 0.04 to 50 μM. Release of AMC from GP-AMC is measured using the Appliskan microplate fluorimeter (Thermo Scientific) with 380 nm (excitation) and 480 nm (emission) filters and the Skanit software, and analysed using the Prism software.
as §1

HeLa cells [3] = assay: Cytosolic prolyl peptidase activity of HeLa cells treated with peptide alone or with Pep-1; format: cell-based, human; conditions: 5 μM peptide, 30 min, also in the absence of carrier peptide Pep-1
Experimental: In another experiment, HeLa cells were treated for 30 minutes with either 5 μM […] (SEQ ID NO: 38) alone or in complex with the carier peptide Pep-1. Cells were then typsinized and cytosolic extracts were prepared and tested for cleavage of the model substrate GP-AMC. Upper panel: […] (SEQ ID NO: 38) was allowed to form a complex with carrier peptide Pep-1 at a molar ratio of 1:10 (cargo:carrier) in FCS free DMEM for 30 min at 37° C. Lower panel: As a comparison, the inhibitory peptide […] was used also in the absence of carrier peptide, at the same concentration. For control, the solvent DMSO was used. These mixtures were overlaid onto HeLa cells allowing the entry for 30 minutes at 37° C. Cells were then trypsinized and lysed in TB buffer containing 0.2% Tween. After ultracentrifugation, the cytosolic extract were probed for DPP activity using […] of the fluorogenic substrate GP-AMC. Each experiment was performed in triplicates.

DPP9 [4] = target: T1, DPP9; assay: Kinetics assay, Ki for inhibition of DPP9 (GP-AMC hydrolysis); format: biochemical
Experimental: as §3, §1, §2

Substance: H-SLRFLYEG
- reduction in cell proliferation (HeLa cells [1]): at least 50%
- inhibitory effect towards DPPIV (DPPIV): no inhibitory effect
- % DPP9 activity (Mean) (DPP9 [2]): 10.92%
- Ki (DPP8): 3.6 µM
- fold lower affinity for DPP8 compared to DPP9 (DPP8): 9 fold
- cytosolic prolyl peptidase activity after exposure of cells (HeLa cells [3]): inhibits cytosolic prolyl peptidase activity
- fold increased efficiency compared to the EIL peptide (Ki DPP9) (DPP9 [4]): 18.5 fold
- Ki (DPP9 [4]; read-out: Ki for DPP9): 0.4 µM
